Reference: patent US20050250137A1, “Molecular targets of cancer and aging” (priority 2002, published 2005)

Assay: GoMiner gene ontology analysis of differentially regulated genes
Parameters: species or system human
[1] = Cellular component: Chromosome, GO 0005694, Total 108
[2] = Cellular component: Cytoplasm, GO 0005737, Total 1705
[3] = Cellular component: Cytoplasmic vesicle, GO 0016023, Total 59
[4] = Cellular component: Cytoskeleton, GO 0005856, Total 334
[5] = Cellular component: Cytosol, GO 0005829, Total 176
[6] = Cellular component: Endoplasmic reticulum, GO 0005783, Total 244
[7] = Cellular component: Extracellular, GO 0005576, Total 586
[8] = Cellular component: Membrane, GO 0016020, Total 1976
[9] = Cellular component: Mitochondrion, GO 0005739, Total 315
[10] = Cellular component: Nucleus, GO 0005634, Total 1483
[11] = Cellular component: Ribosome, GO 0005840, Total 61
[12] = Cellular component: actin cytoskeleton, GO 0015629, Total 120
[13] = Cellular component: endomembrane system, GO 0012505, Total 112
[14] = Cellular component: extracellular matrix, GO 0005578, Total 181
[15] = Cellular component: extracellular space, GO 0005615, Total 228
[16] = Cellular component: integral to membrane, GO 0016021, Total 1549
[17] = Cellular component: microtubule cytoskeleton, GO 0015630, Total 78
[18] = Cellular component: mitochondrial membrane, GO 0005740, Total 75
[19] = Cellular component: nuclear membrane, GO 0005635, Total 50
[20] = Cellular component: nucleolus, GO 0005730, Total 39
[21] = Cellular component: nucleoplasm, GO 0005654, Total 91
[22] = Cellular component: plasma membrane, GO 0005886, Total 1041
[23] = Molecular function: Apoptosis regulator activity, GO 0016329, Total 44
[24] = Molecular function: Binding, GO 0005488, Total 3368
[25] = Molecular function: Catalytic activity, GO 0003824, Total 2129
[26] = Molecular function: Cell adhesion molecule activity, GO 0005194, Total 209
[27] = Molecular function: Defense/immunity protein activity, GO 0003793, Total 36
[28] = Molecular function: Enzyme regulator activity, GO 0030234, Total 306
[29] = Molecular function: Motor activity, GO 0003774, Total 61
[30] = Molecular function: Obsolete molecular function, GO 0008369, Total 419
[31] = Molecular function: Signal transducer activity, GO 0004871, Total 1157
[32] = Molecular function: Structural molecule activity, GO 0005198, Total 333
[33] = Molecular function: Transcription regulator activity, GO 0030528, Total 630
[34] = Molecular function: Translation regulator activity, GO 0045182, Total 43
[35] = Molecular function: Transporter activity, GO 0005215, Total 822
[36] = Molecular function: carrier activity, GO 0005386, Total 239
[37] = Molecular function: electron transporter activity, GO 0005489, Total 138
[38] = Molecular function: enzyme inhibitor activity, GO 0004857, Total 132
[39] = Molecular function: extracellular matrix structural constituent, GO 0005201, Total 60
[40] = Molecular function: hydrolase activity, GO 0016787, Total 917
[41] = Molecular function: kinase activity, GO 0016301, Total 409
[42] = Molecular function: lipid binding, GO 0008289, Total 94
[43] = Molecular function: metal ion binding, GO 0046872, Total 631
[44] = Molecular function: nucleic acid binding, GO 0003676, Total 1232
[45] = Molecular function: nucleotide binding, GO 0000166, Total 763
[46] = Molecular function: oxidoreductase activity, GO 0016491, Total 320
[47] = Molecular function: protein binding, GO 0005515, Total 814
[48] = Molecular function: receptor activity, GO 0004872, Total 678
[49] = Molecular function: receptor binding (under Binding), GO 0005102, Total 301
[50] = Molecular function: receptor binding (under Signal transducer activity), GO 0005102, Total 301
[51] = Molecular function: receptor signaling protein activity, GO 0005057, Total 127
[52] = Molecular function: structural constituent of cytoskeleton, GO 0005200, Total 62
[53] = Molecular function: transcription factor activity, GO 0003700, Total 472
[54] = Molecular function: transferase activity, GO 0016740, Total 706

Q: For `Nc1ncn([C@H]2C[C@H](O)[C@@H](CO)O2)c(=O)n1` [5-aza-dC, 5-aza-2′-deoxycytidine], which “5-aza-dC Up” value (Cellular component: Cellular—component unknown, GO 0008372, Total 266) is on record?
A: 8

Q: And the “5-aza-dC Down” value [1]?
A: 0

Q: What about the “5-aza-dC Up” value [1] of the same compound?
A: 10

Q: What about the “5-aza-dC Down” value [2] of the same compound?
A: 9

Q: And the “5-aza-dC Up” value [2]?
A: 30

Q: What about the “5-aza-dC Down” value [3] of the same compound?
A: 0

Q: And the “5-aza-dC Up” value [3]?
A: 2

Q: What about the “5-aza-dC Down” value [4] of the same compound?
A: 1

Q: And the “5-aza-dC Up” value [4]?
A: 4

Q: And the “5-aza-dC Down” value [5]?
A: 1

Q: What about the “5-aza-dC Up” value [5] of the same compound?
A: 2

Q: And the “5-aza-dC Down” value [6]?
A: 1

Q: And the “5-aza-dC Up” value [6]?
A: 4

Q: And the “5-aza-dC Down” value [7]?
A: 1

Q: And the “5-aza-dC Up” value [7]?
A: 23

Q: And the “5-aza-dC Down” value [8]?
A: 6

Q: And the “5-aza-dC Up” value [8]?
A: 24

Q: And the “5-aza-dC Down” value [9]?
A: 2

Q: And the “5-aza-dC Up” value [9]?
A: 3

Q: What about the “5-aza-dC Down” value [10] of the same compound?
A: 7

Q: And the “5-aza-dC Up” value [10]?
A: 44

Q: What about the “5-aza-dC Down” value [11] of the same compound?
A: 1

Q: What about the “5-aza-dC Up” value [11] of the same compound?
A: 1

Q: And the “5-aza-dC Down” value [12]?
A: 0

Q: What about the “5-aza-dC Up” value [12] of the same compound?
A: 0

Q: And the “5-aza-dC Down” value [13]?
A: 0

Q: And the “5-aza-dC Up” value [13]?
A: 1

Q: And the “5-aza-dC Down” value [14]?
A: 0

Q: What about the “5-aza-dC Up” value [14] of the same compound?
A: 4

Q: And the “5-aza-dC Down” value [15]?
A: 0

Q: What about the “5-aza-dC Up” value [15] of the same compound?
A: 13

Q: What about the “5-aza-dC Down” value [16] of the same compound?
A: 5

Q: What about the “5-aza-dC Up” value [16] of the same compound?
A: 18

Q: What about the “5-aza-dC Down” value [17] of the same compound?
A: 1

Q: What about the “5-aza-dC Up” value [17] of the same compound?
A: 0

Q: And the “5-aza-dC Down” value [18]?
A: 0

Q: What about the “5-aza-dC Up” value [18] of the same compound?
A: 0

Q: What about the “5-aza-dC Down” value [19] of the same compound?
A: 0

Q: What about the “5-aza-dC Up” value [19] of the same compound?
A: 0

Q: What about the “5-aza-dC Down” value [20] of the same compound?
A: 0

Q: And the “5-aza-dC Up” value [20]?
A: 1

Q: And the “5-aza-dC Down” value [21]?
A: 0

Q: And the “5-aza-dC Up” value [21]?
A: 5

Q: What about the “5-aza-dC Down” value [22] of the same compound?
A: 3

Q: What about the “5-aza-dC Up” value [22] of the same compound?
A: 13

Q: What about the “5-aza-dC Down” value [23] of the same compound?
A: 0

Q: What about the “5-aza-dC Up” value [23] of the same compound?
A: 4

Q: And the “5-aza-dC Down” value [24]?
A: 9

Q: And the “5-aza-dC Up” value [24]?
A: 83

Q: What about the “5-aza-dC Down” value [25] of the same compound?
A: 12

Q: And the “5-aza-dC Up” value [25]?
A: 43

Q: And the “5-aza-dC Down” value [26]?
A: 0

Q: And the “5-aza-dC Up” value [26]?
A: 3

Q: And the “5-aza-dC Down” value [27]?
A: 0

Q: What about the “5-aza-dC Up” value [27] of the same compound?
A: 1

Q: What about the “5-aza-dC Down” value [28] of the same compound?
A: 5

Q: What about the “5-aza-dC Up” value [28] of the same compound?
A: 6

Q: What about the “5-aza-dC Down” value [29] of the same compound?
A: 0

Q: And the “5-aza-dC Up” value [29]?
A: 0

Q: What about the “5-aza-dC Down” value [30] of the same compound?
A: 1

Q: What about the “5-aza-dC Up” value [30] of the same compound?
A: 12

Q: And the “5-aza-dC Down” value [31]?
A: 5

Q: And the “5-aza-dC Up” value [31]?
A: 23

Q: And the “5-aza-dC Down” value [32]?
A: 3

Q: What about the “5-aza-dC Up” value [32] of the same compound?
A: 4

Q: And the “5-aza-dC Down” value [33]?
A: 0

Q: And the “5-aza-dC Up” value [33]?
A: 18

Q: What about the “5-aza-dC Down” value [34] of the same compound?
A: 1

Q: And the “5-aza-dC Up” value [34]?
A: 1

Q: What about the “5-aza-dC Down” value [35] of the same compound?
A: 1

Q: What about the “5-aza-dC Up” value [35] of the same compound?
A: 14

Q: And the “5-aza-dC Down” value [36]?
A: 1

Q: What about the “5-aza-dC Up” value [36] of the same compound?
A: 3

Q: What about the “5-aza-dC Down” value [37] of the same compound?
A: 1

Q: What about the “5-aza-dC Up” value [37] of the same compound?
A: 5

Q: And the “5-aza-dC Down” value [38]?
A: 2

Q: What about the “5-aza-dC Up” value [38] of the same compound?
A: 4

Q: What about the “5-aza-dC Down” value [39] of the same compound?
A: 0

Q: What about the “5-aza-dC Up” value [39] of the same compound?
A: 1

Q: What about the “5-aza-dC Down” value [40] of the same compound?
A: 4

Q: What about the “5-aza-dC Up” value [40] of the same compound?
A: 25

Q: And the “5-aza-dC Down” value [41]?
A: 3

Q: What about the “5-aza-dC Up” value [41] of the same compound?
A: 2

Q: What about the “5-aza-dC Down” value [42] of the same compound?
A: 0

Q: What about the “5-aza-dC Up” value [42] of the same compound?
A: 1

Q: What about the “5-aza-dC Down” value [43] of the same compound?
A: 0

Q: And the “5-aza-dC Up” value [43]?
A: 12

Q: And the “5-aza-dC Down” value [44]?
A: 6

Q: And the “5-aza-dC Up” value [44]?
A: 36

Q: What about the “5-aza-dC Down” value [45] of the same compound?
A: 3

Q: And the “5-aza-dC Up” value [45]?
A: 10

Q: And the “5-aza-dC Down” value [46]?
A: 2

Q: What about the “5-aza-dC Up” value [46] of the same compound?
A: 6

Q: And the “5-aza-dC Down” value [47]?
A: 1

Q: And the “5-aza-dC Up” value [47]?
A: 26

Q: What about the “5-aza-dC Down” value [48] of the same compound?
A: 4

Q: What about the “5-aza-dC Up” value [48] of the same compound?
A: 11

Q: What about the “5-aza-dC Down” value [49] of the same compound?
A: 1

Q: What about the “5-aza-dC Up” value [49] of the same compound?
A: 14

Q: What about the “5-aza-dC Down” value [50] of the same compound?
A: 1

Q: And the “5-aza-dC Up” value [50]?
A: 14

Q: What about the “5-aza-dC Down” value [51] of the same compound?
A: 0

Q: What about the “5-aza-dC Up” value [51] of the same compound?
A: 0

Q: What about the “5-aza-dC Down” value [52] of the same compound?
A: 0

Q: What about the “5-aza-dC Up” value [52] of the same compound?
A: 1

Q: What about the “5-aza-dC Down” value [53] of the same compound?
A: 0

Q: And the “5-aza-dC Up” value [53]?
A: 12

Q: What about the “5-aza-dC Down” value [54] of the same compound?
A: 5

Q: And the “5-aza-dC Up” value [54]?
A: 8
